Source: ChEMBL document CHEMBL1122667, “Acetylation of some novel hemicholinium compounds by soluble choline acetyltransferase: structure-activity relationships” (J Med Chem, 1984)

How the values were obtained:
[1] = molecular target: T1, Choline O-acetyltransferase (Rattus norvegicus) (UniProt P32738); experiment: Rate of acetylation of 13.0+/-1.1 umol compound by 1 g of choline acetyltransferase (ChAc) by incubating for 10 minutes at 37 degrees Centigrade; parameters: reference not given here
T1 sequence (whole entry): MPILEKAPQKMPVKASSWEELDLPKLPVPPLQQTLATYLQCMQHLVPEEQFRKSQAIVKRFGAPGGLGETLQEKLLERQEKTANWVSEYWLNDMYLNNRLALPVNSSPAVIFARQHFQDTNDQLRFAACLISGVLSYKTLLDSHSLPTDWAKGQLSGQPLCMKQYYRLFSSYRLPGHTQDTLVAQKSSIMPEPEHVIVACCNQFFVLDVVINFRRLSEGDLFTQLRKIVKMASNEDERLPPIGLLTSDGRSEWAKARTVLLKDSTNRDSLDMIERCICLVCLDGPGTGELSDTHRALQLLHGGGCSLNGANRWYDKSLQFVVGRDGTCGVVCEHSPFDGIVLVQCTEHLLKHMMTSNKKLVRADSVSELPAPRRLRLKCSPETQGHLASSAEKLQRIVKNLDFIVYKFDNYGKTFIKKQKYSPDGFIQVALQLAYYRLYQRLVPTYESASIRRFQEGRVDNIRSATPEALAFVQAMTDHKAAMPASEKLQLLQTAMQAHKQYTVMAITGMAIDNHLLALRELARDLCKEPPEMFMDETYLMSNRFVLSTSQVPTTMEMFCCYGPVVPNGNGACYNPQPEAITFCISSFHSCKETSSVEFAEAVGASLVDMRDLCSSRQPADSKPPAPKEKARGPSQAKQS

[2] = substrate: C[N+]1(C)CCOC(O)(c2ccc(CCCc3ccc(C4(O)C[N+](C)(C)CCO4)cc3)cc2)C1; experiment: (§1) Apparent Michaelis-Menten Constant (KM) for the acetylation of compound was calculated from Linewear-Burke plots by incubating for 10 minutes at 37 degrees Centigrade
[3] = substrate: C[N+]1(C)CCOC(O)(c2ccc(-c3ccc(C4(O)C[N+](C)(C)CCO4)cc3)cc2)C1; experiment: as §1
[4] = substrate: C[N+](C)(C)CCO; experiment: as §1

Molecule: C[N+](C)(C)CCO
- Acetylation [1]: 100%

Molecule: C[N+]1(C)CCOC(O)(c2ccc(CCCCc3ccc(C4(O)C[N+](C)(C)CCO4)cc3)cc2)C1 (centres undefined)
- Acetylation [1]: 5%

Molecule: C[N+]1(C)CCOC(O)(c2ccc(CCc3ccc(C4(O)C[N+](C)(C)CCO4)cc3)cc2)C1 (centres undefined)
- Acetylation [1]: 3%

Molecule: C[N+]1(C)CCOC(O)(c2ccc(Cc3ccc(C4(O)C[N+](C)(C)CCO4)cc3)cc2)C1 (centres undefined)
- Acetylation [1]: 4%

Molecule: C[N+]1(C)CCOC(O)(c2ccc(CCCc3ccc(C4(O)C[N+](C)(C)CCO4)cc3)cc2)C1 (centres undefined)
- Acetylation [1]: 28%

Molecule: C[N+]1(C)CCOC(O)(c2ccc(-c3ccc(C4(O)C[N+](C)(C)CCO4)cc3)cc2)C1 (centres undefined)
- Acetylation [1]: 28%

B1: Choline O-acetyltransferase (Rattus norvegicus), P32738 (protein)
chain: T1 sequence (whole entry)
- Km [2]: 1270 µM
- Km [3]: 1210 µM
- Km [4]: 290 µM
